From paper PMC8157578 (Antioxidants, 2021)

What was measured:
HeLa cells [1] = experiment: Labile iron pool (LIP) determination with calcein-AM in iron-overloaded HeLa cells, flow cytometry; format: cell-based, human; conditions: 15 min
Method: HeLa cells (10^6/mL) were loaded by incubation with 20 μM Fe(II) for 2 h at 37 °C. Subsequently, cells were collected by centrifugation (1000 rpm for 5 min) and incubated with 0.5 μM calcein-AM for 15 min at 37 °C in a D’hanks buffer of pH 7.4. Cells were then washed twice by D’hanks buffer (pH 7.4) and incubated with or without CAPE and its analogues. The fluorescence was monitored by both flow cytometry (BD FACS Caliber) and a CLSM (Leica TCS SP). The experiment was repeated three times.
Figure 3 Effect of CAPE and its analogues on the LIP level in iron-overloaded cells, as measured by flow cytometry (A–D). HeLa cells were pretreated with 20 μM Fe(II) for 2 h and then incubated with calcein-AM. After 15 min, cells were washed and incubated with or without CAPE and its analogues for 15 min. The fluorescence intensity of cells was measured by flow cytometry. Significant differences from the iron-overloaded group are marked with * p < 0.05, ** p < 0.01, and *** p < 0.001. The experiment was repeated three times.

[2] = Cyclic voltammetry of Fe(III) chelated by ligand; format: physicochemical; conditions: 100 mM PB pH 7.4, SCE reference, 2 mV/s; Fe(III) alone approximately −0.65 V
Method: CV was performed in 100 mM PB (pH 7.4) on a Princeton Applied Research (VersaSTAT3) potentiostat with a Pt wire as the counter electrode, a saturated calomel electrode (SCE) as the reference electrode, and a glassy carbon electrode (5 mm in diameter) as the working electrode. The scan rate was 2 mV/s.

[3] = ESR spin-trapping (DMPO) of •OH generated by Fe(III)–citrate–ascorbate–H2O2; format: biochemical; conditions: 100 μM Fe(III)–citrate, 100 μM ascorbate, 1 mM H2O2
Method: The basic system used in this study consisted of Fe(III)/Fe(II), ascorbate, H2O2, and the spin trapping agent DMPO (100 mM) in 20 mM HEPES (pH 7.4) with or without CAPE and its analogues.
The reaction mixture contained 100 μM Fe(III)–citrate, 100 μM ascorbate, and 1 mM H2O2, as well as the indicated concentrations of CAPE and its analogues. The experiments were repeated three times, and only typical spectra are presented.
2.3 Electron spin resonance (ESR) spin-trapping studies
spectrometer parameters were as follows: scan range, 100 G; field set, 3470 G; time constant, 200 ms;
scan time, 100 s; modulation amplitude, 1.0 G; modulation frequency, 100 kHz; receiver gain,

HeLa cells [4] = experiment: Labile iron pool (LIP) determination with calcein-AM in iron-overloaded HeLa cells, flow cytometry; format: cell-based, human; conditions: 50 μM compound alone, no iron
plasmid pBR322 DNA [5] = experiment: Plasmid DNA strand breakage induced by Fe(II)–H2O2, agarose gel electrophoresis; format: biochemical; conditions: ratio-dependent
Method: (§1) Plasmid DNA agarose gel electrophoresis was employed to investigate protective effect of CAPE and its analogues against DNA strand breakage induced by an iron-mediated system. For experimental procedure details, please refer to the Supplementary Materials.
(§2) 2.1 Immunofluorescence analysis of intracellular γ-H2AX generation in Hela cells
(§3) Fixed cells were permeabilized with 0.25% Triton-X100 in PBS for 10 min and blocked in 10%
(§4) normal goat serum, 0.1% tween 20 in PBS for 1 hour. The cells were incubated with primary
(§5) monoclonal antibody, γ-H2AX (Ser139, 20E3, Rabbit, mAb #9718) (1:600) overnight at 4°C, and then
(§6) stained secondary antibodies, anti-rabbit Alexa-488 and anti-mouse (Cell Signaling Technology) for
(§7) 1 hour. After Hoechst 33342 (10 μg/mL) staining for 2 min, dishes were mounted in ProLong™ Gold
(§8) Antifade Mountant (Invitrogen™) and stored at 4°C in the dark before confocal laser-scanning by
(§9) Broadband Confocal Leica TCS SP5. The CLSM images were obtained with the following excitation
(§10) respectively. Cells were washed 3 times with PBS (200 μL/well) at intervals. […]
ESR spectra were recorded at room temperature in a Bruker ESR 300 spectrometer. […]
The consumption of O2 was measured by Orion 3 dissolved oxygen meter (Thermo Scientific, […]
Corona Needle current was 3000 nA. The size of data points was recorded in 4 M format. […]

HeLa cells [6] = experiment: Immunofluorescence analysis of intracellular γ-H2AX generation in iron-overloaded HeLa cells (with H2O2); format: cell-based, human; conditions: Fe(II)-H2O2 alone 2.86±0.64
Method: The immortalized human cervical carcinoma HeLa cell line used in this study was obtained from the Cell Resource Center, Peking Union Medical College. The cell line was checked to be free of mycoplasma contamination by PCR and culture. Its species origin was confirmed with PCR. The identity of the cell line was authenticated with STR profiling (FBI, CODIS). HeLa cells were cultured in a DMEM medium (4 mM L-glutamine, 4500 mg/L glucose, and no sodium pyruvate) with 10% fetal bovine serum (FBS) and 1% penicillin–streptomycin at 37 °C under a 5% CO2 atmosphere.
HeLa cells (10^4/well) were loaded by incubation with 20 μM Fe(II) for 2 h at 37 °C. […] For a detailed experimental procedure, please refer to the Supplementary Materials and our previous report. The experiment was repeated three times. The observation of the fluorescence of γ-H2AX in HeLa cells was conducted with a confocal laser scanning microscope (CLSM) (Leica TCS SP). Thirty cells in each group were randomly selected in different microscopic fields for quantitative detection. In detail, each well was equally divided into nine fields and numbered sequentially from the top right corner. Four fields were randomly selected according to a random number table. Thirty cells were then randomly selected from these four fields. All images were analyzed blind regarding exposure parameters, which were coded by one person and read by another who was blinded to the code. The fluorescence intensity of the γ-H2AX signal on selected images was automatically analyzed using the Image-J software. The Statistical Product and Service Solutions (SPSS 21) program was employed to analyze the data through ANOVA. Significant difference from iron-overloaded group are marked with * p < 0.05, ** p < 0.01, and *** p < 0.001.
as §2, §3, §4, §5, §6, §7, §8, §9, §10

plasmid pBR322 DNA [7] = experiment: Plasmid DNA strand breakage induced by Fe(III)–citrate/ascorbate/H2O2, agarose gel electrophoresis; format: biochemical; conditions: 20 μM Fe(III)–citrate, 10 μM ascorbate, 200 μM H2O2
Method: as §1
Figure 4 Protective effect of CAPE and its analogues against Fe(III)–citrate–ascorbate–H2O2-induced DNA damage. […] The reaction mixture contained 20 μM Fe(III)–citrate, 10 μM ascorbate, and 200 μM H2O2, as well as the indicated concentrations of CAPE and its analogues. The experiments were repeated three times, and only typical images are presented. […]
The experiments were conducted via incubation of plasmid pBR322 DNA (5 μg/mL) at 37 °C for
30 min in Chelex-treated HEPES buffer (100 mM, pH 7.4) with the iron-containing systems, in the
absence or presence of the indicated concentrations of CAPE and its analogues. […]

[8] = 1-octanol/phosphate buffer partitioning, shake-flask method; format: physicochemical; conditions: 1-octanol / 100 mM phosphate buffer pH 7.4, shake-flask
HeLa cells [9] = experiment: Auto-fluorescence of HeLa cells after incubation with compound (cell uptake); format: cell-based, human; conditions: HeLa cells incubated two hours, auto-fluorescence Ex ~330 nm, Em ~450 nm
Text: Subsequently, cells were washed and collected by centrifugation, the fluorescence of cells (105) was monitored by Thermo Scientific Varioskan Flash (Thermo Fisher scientific, USA) ***Significant difference from iron-overloaded group, p < 0.001.

Reduction potential of Fe(III) chelated by compound [2]: −1.00 V
LogKow [8]: 2.01 ± 0.02
Fluorescence inside the cells after incubation (crossing the cell membrane), in words (HeLa cells [9]): significantly increase
SMILES: O=C(/C=C/c1ccc(O)c(O)c1)OCCc1ccccc1 [CAPE, Caffeic acid phenethyl ester]
Fluorescence intensity of calcein-AM (LIP level) (HeLa cells [1]; 20 μM Fe(II) + 2 μM compound, Fe(II) alone 0.64±0.04): 0.65±0.00 Fold of Control
Fluorescence intensity of calcein-AM (LIP level) (HeLa cells [1]; 20 μM Fe(II) + 20 μM compound, Fe(II) alone 0.64±0.04): 0.73±0.02 Fold of Control
Fluorescence intensity of calcein-AM (LIP level) (HeLa cells [1]; 20 μM Fe(II) + 50 μM compound, Fe(II) alone 0.63-0.64): 0.89±0.04 Fold of Control
Inhibitory effect against Fe(III)-citrate-Vc-H2O2 induced •OH generation, in words [3]: completely inhibited
Concentration with the stated inhibition of Fe(III)-citrate-Vc-H2O2 induced •OH generation ([3]; CAPE completely, CA significantly): 200 µM
Fluorescence intensity of calcein-AM (LIP level) (HeLa cells [4]): 0.97±0.03 Fold of Control
Inhibition of Fe(II)–H2O2-induced DNA strand breaks, in words (plasmid pBR322 DNA [5]): significantly inhibited
Fluorescence intensity of γ-H2AX (HeLa cells [6]; Fe(II)-H2O2 + 2 μM compound): 3.07±0.54 Fold of Control
Fluorescence intensity of γ-H2AX (HeLa cells [6]; Fe(II)-H2O2 + 10 μM compound): 2.71±0.32 Fold of Control
Fluorescence intensity of γ-H2AX (HeLa cells [6]; Fe(II)-H2O2 + 20 μM compound): 1.66±0.46 Fold of Control
Fluorescence intensity of γ-H2AX (HeLa cells [6]; Fe(II)-H2O2 + 50 μM compound): 1.26±0.23 Fold of Control
Protective effect against Fe(III)–citrate–ascorbate–H2O2-induced DNA damage, in words (plasmid pBR322 DNA [7]): significantly inhibited
Concentration range with the stated inhibition of Fe(III)-citrate-Vc-H2O2 induced DNA damage (plasmid pBR322 DNA [7]; CAPE significantly, CA slightly): 40 to 200 µM
